Values of other authors in US9301957B2, “Immediate release 4-methyl-3-4[[4-(3-pyridinyl)-2-pyrimidinyl]amino]-N-[5-(4-methyl-1H-imidazol-1-YL)-3-(trifluoromethyl)phenyl] benzamide formulation” (Novartis AG, priority 2011, dated 2016).

Tests used:
[1] = unit dosage given shortly after food, compared to a fasted state
[2] = nilotinib and its salts

- systemic exposure, as reflected by AUC and Cmax [1]: increases markedly
- water solubility [2]: poorly water soluble
SMILES: Cc1cn(-c2cc(NC(=O)c3ccc(C)c(Nc4nccc(-c5cccnc5)n4)c3)cc(C(F)(F)F)c2)cn1 [nilotinib, 4-Methyl-3-[[4-(3-pyridinyl)-2-pyrimidinyl]amino]-N-[5-(4-methyl-1H-imidazol-1-yl)-3-(trifluoromethyl)phenyl]benzamide]
